Values joined by “and” are separate entries in the source; they are usually repeats but may differ in a detail not shown here. Equal values may be shown once. Toxic doses and inconclusive results are not listed.
System: CD2F1 mice, L1210 leukemia ip, survival T/C
Assay: NCI In Vivo Anticancer Drug Screen. Data for tumor model L1210 Leukemia (intraperitoneal) in CD2F1 (CDF1) mice
Details: higher = longer survival
Procedure, shortened: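 Transplantable tumor in mice; compound-treated vs vehicle-treated groups. Read-out = treated/control ratio of the measured endpoint.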

[1] = endpoint: mean survival time, dose: 25.0 mg/kg/injection, schedule: Q01DX005 (ip), vehicle: water
[2] = endpoint: mean survival time, dose: 50.0 mg/kg/injection, schedule: Q01DX005 (ip), vehicle: water

COC(=O)N(C)c1nc(-c2ccccc2)nc2nonc12 was tested, and the T/C (endpoint: mean survival time, dose: 12.5 mg/kg/injection, schedule: Q01DX005 (ip), vehicle: saline with Tween-80) was 100 % of control, the T/C (endpoint: mean survival time, dose: 25.0 mg/kg/injection, schedule: Q01DX005 (ip), vehicle: saline with Tween-80) was 96 % of control and the T/C (endpoint: mean survival time, dose: 50.0 mg/kg/injection, schedule: Q01DX005 (ip), vehicle: saline with Tween-80) was 94 % of control. For the same compound, the T/C (endpoint: mean survival time, dose: 100.0 mg/kg/injection, schedule: Q01DX005 (ip), vehicle: saline with Tween-80) was 90 % of control.

For [Cl][Pt+2][Cl].[NH-]C1CCCCC1C1CCCCC1[NH-] (configuration not stated), the T/C (endpoint: mean survival time, dose: 6.25 mg/kg/injection, schedule: Q04DX003 (ip), vehicle: distilled water + Tween-80) was 123 % of control, the T/C (endpoint: mean survival time, dose: 25.0 mg/kg/injection, schedule: Q04DX003 (ip), vehicle: distilled water + Tween-80) was 173 % of control and the T/C (endpoint: mean survival time, dose: 100.0 mg/kg/injection, schedule: Q04DX003 (ip), vehicle: distilled water + Tween-80) was 86 % of control.

In the case of COC(OC)c1[nH]c(=S)[nH]c(=O)c1Cc1cc(C)ccc1C, the T/C (endpoint: mean survival time, dose: 100.0 mg/kg/injection, schedule: Q04DX003 (ip), vehicle: saline sonified) is reported as 101 % of control, the T/C (endpoint: mean survival time, dose: 200.0 mg/kg/injection, schedule: Q04DX003 (ip), vehicle: saline sonified) is reported as 95 % of control and the T/C (endpoint: mean survival time, dose: 400.0 mg/kg/injection, schedule: Q04DX003 (ip), vehicle: saline sonified) is reported as 101 % of control.

With FC(F)(F)c1cccc([PH+](c2cccc(C(F)(F)F)c2)c2cccc(C(F)(F)F)c2)c1.FC(F)(F)c1cccc([PH+](c2cccc(C(F)(F)F)c2)c2cccc(C(F)(F)F)c2)c1.[Cl][Hg][Cl] the T/C (endpoint: mean survival time, dose: 12.5 mg/kg/injection, schedule: Q01DX009 (ip), vehicle: Klucel (hydroxypropylcellulose) (HPC)) was 101 % of control, the T/C (endpoint: mean survival time, dose: 25.0 mg/kg/injection, schedule: Q01DX009 (ip), vehicle: Klucel (hydroxypropylcellulose) (HPC)) was 108 % of control and the T/C (endpoint: mean survival time, dose: 50.0 mg/kg/injection, schedule: Q01DX009 (ip), vehicle: Klucel (hydroxypropylcellulose) (HPC)) was 89 % of control.

In the case of O=[N+]([O-])C1(Br)C(c2ccccc2)C=CC(c2ccccc2)C1c1ccccc1 (configuration not stated), the T/C (endpoint: mean survival time, dose: 100.0 mg/kg/injection, schedule: Q04DX003 (ip), vehicle: saline with Tween-80) is reported as 95 % of control, the T/C (endpoint: mean survival time, dose: 200.0 mg/kg/injection, schedule: Q04DX003 (ip), vehicle: saline with Tween-80) is reported as 95 % of control and the T/C (endpoint: mean survival time, dose: 400.0 mg/kg/injection, schedule: Q04DX003 (ip), vehicle: saline with Tween-80) is reported as 91 % of control.

For CC(=O)NCCN, the T/C (endpoint: mean survival time, dose: 50.0 mg/kg/injection, schedule: Q04DX003 (ip), vehicle: saline) was 101 % of control, the T/C (endpoint: mean survival time, dose: 100.0 mg/kg/injection, schedule: Q04DX003 (ip), vehicle: saline) was 95 % of control and the T/C (endpoint: mean survival time, dose: 200.0 mg/kg/injection, schedule: Q04DX003 (ip), vehicle: saline) was 97 % of control.

In the case of N=c1c2ccn(C3OC(CO)C(O)C3O)c2ncn1N (configuration not stated), the T/C (endpoint: mean survival time, dose: 12.5 mg/kg/injection, schedule: Q01DX005 (ip), vehicle: water) is reported as 115 % of control, the T/C [1] is reported as 110 % of control and the T/C [2] is reported as 115 % of control and 116 % of control. The T/C (endpoint: mean survival time, dose: 100.0 mg/kg/injection, schedule: Q01DX005 (ip), vehicle: water) was 94 % of control.

In the case of CCOC(=O)Nc1cc2c(c(N)n1)N=C(c1ccc3ccccc3c1)CN2, the T/C (endpoint: median survival time, dose: 0.93 mg/kg/injection, schedule: Q01DX009 (ip), vehicle: saline with Tween-80) is reported as 122 % of control, the T/C (endpoint: median survival time, dose: 1.0 mg/kg/injection, schedule: Q01DX009 (ip), vehicle: saline with Tween-80) is reported as 112 % of control and the T/C (endpoint: median survival time, dose: 1.87 mg/kg/injection, schedule: Q01DX009 (ip), vehicle: saline with Tween-80) is reported as 113 % of control. The T/C (endpoint: median survival time, dose: 3.75 mg/kg/injection, schedule: Q01DX009 (ip), vehicle: saline with Tween-80) was 121 % of control, the T/C (endpoint: median survival time, dose: 15.0 mg/kg/injection, schedule: Q01DX009 (ip), vehicle: saline with Tween-80) was 113 % of control and the T/C (endpoint: median survival time, dose: 16.0 mg/kg/injection, schedule: Q01DX009 (ip), vehicle: saline with Tween-80) was 114 % of control.

Clc1ccccc1/C=N/N=C/c1ccccc1Cl was tested, and the T/C (endpoint: mean survival time, dose: 100.0 mg/kg/injection, schedule: Q01DX001 (ip), vehicle: saline with Tween-80) was 91 % of control, the T/C (endpoint: mean survival time, dose: 200.0 mg/kg/injection, schedule: Q01DX001 (ip), vehicle: saline with Tween-80) was 90 % of control and the T/C (endpoint: mean survival time, dose: 400.0 mg/kg/injection, schedule: Q01DX001 (ip), vehicle: saline with Tween-80) was 89 % of control.

In the case of [Cl][Pt+2][Cl].[NH-]c1cccc(C(F)(F)F)c1.[NH-]c1cccc(C(F)(F)F)c1, the T/C (endpoint: mean survival time, dose: 12.5 mg/kg/injection, schedule: Q04DX003 (ip), vehicle: saline with Tween-80) is reported as 95 % of control, the T/C (endpoint: mean survival time, dose: 25.0 mg/kg/injection, schedule: Q04DX003 (ip), vehicle: saline with Tween-80) is reported as 100 % of control and the T/C (endpoint: mean survival time, dose: 50.0 mg/kg/injection, schedule: Q04DX003 (ip), vehicle: saline with Tween-80) is reported as 103 % of control.

Cc1cnc([Se])[nH]c1=O was tested, and the T/C [1] was 87 % of control and the T/C [2] was 90 % of control.

In the case of O=[N+]([O-])O, the T/C (endpoint: mean survival time, dose: 50.0 mg/kg/injection, schedule: Q01DX009 (ip), vehicle: saline with Tween-80) is reported as 86 % of control and the T/C (endpoint: mean survival time, dose: 100.0 mg/kg/injection, schedule: Q01DX009 (ip), vehicle: saline with Tween-80) is reported as 86 % of control.

With NC(CS)=NCc1ccccc1 the T/C (endpoint: mean survival time, dose: 6.25 mg/kg/injection, schedule: Q04DX002 (ip), vehicle: saline) was 108 % of control, the T/C (endpoint: mean survival time, dose: 12.5 mg/kg/injection, schedule: Q04DX002 (ip), vehicle: saline) was 115 % of control and the T/C (endpoint: mean survival time, dose: 25.0 mg/kg/injection, schedule: Q04DX002 (ip), vehicle: saline) was 101 % of control.
